# Tested on: bone marrow aspirate
# Assay: Centrifugal fractionation of bone marrow aspirate with the whole-blood platelet rich plasma protocol; analysis of ten milliliter concentrate sample
# Assay type: cell-based
# Settings: 60 mls bone marrow aspirate collected into heparin, 8-10 mls of ACD added or heparin alone, two centrifugations
# Description: In one specific example of the invention, 60 mls of bone marrow aspirate is collected into a bag or syringe having heparin as the anticoagulant. A bag is preferred to be able to inspect the collected marrow. Then, 8-10 mls of ACD are added to the collected aspirate to adjust the sedimentation rate of the components, particularly the red blood cells. The aspirate mixture is then placed in the first chamber of a two-chamber processing unit and subjected to centrifugation according to a known protocol designed to fractionate whole blood for the purpose of making platelet rich plasma as described in U.S. Pat. No. 6,398,972. The supernatant is then decanted to the second chamber and again subjected to centrifugation according to the said process designed to separate platelets to make platelet rich plasma. Supernatant from the second centrifugation is withdrawn to leave a ten milliliter concentrate sample remaining in the chamber. […] In contrast, when same process is followed with heparin alone, the sample is 3% Hct with a TNC of 32.4×10^3/μl.
substance,measurement,value
heparin,Hct of concentrate sample,3 % Hct
same,total nucleated cell count (TNC) of concentrate sample,32400 µL⁻¹

# Source: patent publication US20080213743A1, “Method for adjusting sedimentation rates” (priority 2007, published 2008)
